# Legend:
# Assay in all cases: Bliss excess, mean over the matrix (fraction); higher = more synergy
# NH-12 (Neuroblastoma) = test system: NH-12 (Neuroblastoma)
# Procedure, shortened: (§1)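 After 24 hours at 37°C and 5% CO2 in 1536-well plates, cells in DMEM/F12 or RPMI plus 10% FBS received two-drug dose matrices for 72 hours. Viability came from CellTiter-Glo 2.0 luminescence and was scaled as inhibition, anchored at 0 by vehicle wells and at 1 by blank wells. Combination Emax is taken as the second-highest inhibition in the matrix, and Bliss excess as the observed combination effect less EA + EB − EA·EB, with EA and EB the single-agent effects.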
# [1] = test system: NCI-H1573 (Lung Adenocarcinoma)
# Procedure, shortened: as §1
# [2] = test system: KYSE-150 (Esophageal Squamous Cell Carcinoma)
# Procedure, shortened: as §1
# [3] = test system: JHH-7 (Hepatocellular Carcinoma)
# Procedure, shortened: as §1
# EW-18 (Ewing's Sarcoma) = test system: EW-18 (Ewing's Sarcoma)
# Procedure, shortened: as §1
# [4] = test system: BV-173 (Chronic Myelogenous Leukemia)
# Procedure, shortened: as §1
# [5] = test system: KP-2 (Pancreatic Carcinoma)
# Procedure, shortened: as §1
# [6] = test system: PF-382 (T-Lymphoblastic Leukemia)
# Procedure, shortened: as §1
# EW-3 (Ewing's Sarcoma) = test system: EW-3 (Ewing's Sarcoma)
# Procedure, shortened: as §1
# [7] = test system: TGBC11TKB (Gastric Carcinoma)
# Procedure, shortened: as §1
# [8] = test system: HC-1 (Other Blood Carcinomas)
# Procedure, shortened: as §1
# [9] = test system: SCC-3 (B-Cell Non-Hodgkin's Lymphoma)
# Procedure, shortened: as §1
# [10] = test system: MFE-319 (Endometrial Carcinoma)
# Procedure, shortened: as §1
# RPMI-7951 (Melanoma) = test system: RPMI-7951 (Melanoma)
# Procedure, shortened: as §1
# [11] = test system: OCUM-1 (Gastric Carcinoma)
# Procedure, shortened: as §1
# GI-1 (Glioblastoma) = test system: GI-1 (Glioblastoma)
# Procedure, shortened: as §1
# [12] = test system: NCI-H513 (Other Solid Carcinomas)
# Procedure, shortened: as §1
# [13] = test system: HSC-2 (Oral Cavity Carcinoma)
# Procedure, shortened: as §1
# [14] = test system: NCI-N87 (Gastric Carcinoma)
# Procedure, shortened: as §1
# [15] = test system: NCI-H2347 (Lung Adenocarcinoma)
# Procedure, shortened: as §1
Compound,Bliss excess (NH-12 (Neuroblastoma)),Bliss excess [1],Bliss excess [2],Bliss excess [3],Bliss excess (EW-18 (Ewing's Sarcoma)),Bliss excess [4],Bliss excess [5],Bliss excess [6],Bliss excess (EW-3 (Ewing's Sarcoma)),Bliss excess [7],Bliss excess [8],Bliss excess [9],Bliss excess [10],Bliss excess (RPMI-7951 (Melanoma)),Bliss excess [11],Bliss excess (GI-1 (Glioblastoma)),Bliss excess [12],Bliss excess [13],Bliss excess [14],Bliss excess [15]
"C[C@@H]1COCCN1c1cc(C2([S@](C)(=N)=O)CC2)nc(-c2ccnc3[nH]ccc23)n1 [AZD6738] + O=C(c1cc(Cc2n[nH]c(=O)c3ccccc23)ccc1F)N1CCN(C(=O)C2CC2)CC1 [Olaparib] (first compound max 10 µM, 7x7, partner max 10 µM)",-0.0308,0.0201,0.0376,0.0012,0.0292,-0.0099,0.0024,-0.0167,-0.0558,-0.0236,-0.0238,0.0103,-0.0089,0.0207,-0.0399,0.0039,0.0157,0.0825,0.0043,-0.0515
"C[C@@H](c1ccc2nccn2c1)n1nnc2ncc(-c3cnn(C)c3)nc21 [Savolitinib] + CC1(C)CCC(CN2CCN(c3ccc(C(=O)NS(=O)(=O)c4ccc(NCC5CCOCC5)c([N+](=O)[O-])c4)c(Oc4cnc5[nH]ccc5c4)c3)CC2)=C(c2ccc(Cl)cc2)C1 [Venetoclax] (first compound max 1 µM, 7x7, partner max 1 µM)",-0.0158,-0.0802,-0.0686,-0.0342,-0.067,0.0064,-0.0518,-0.0402,0.0364,-0.0367,-0.0824,-0.0166,-0.0764,-0.0432,-0.0368,0.0079,-0.0719,0.0064,-0.0341,-0.0848
"Cc1c2c(nn1C)CSCc1cc(n(C)n1)CSc1cc(c3ccccc3c1)OCCCc1c(C(=O)O)n(C)c3c-2c(Cl)ccc13 [AZD5991] + CCN(CCO)CCCOc1ccc2c(Nc3cc(CC(=O)Nc4cccc(F)c4)[nH]n3)ncnc2c1 [AZD2811] (first compound max 1 µM, 7x7, partner max 1 µM)",-0.0331,-0.0145,-0.0339,0.0144,-0.0209,-0.0554,0.0395,0.0276,0.05,0.0266,0.13,0.0604,0.0215,-0.0924,-0.0031,0.0731,-0.0026,0.0322,-0.0104,0.0102
"CN(CCO)CC[C@H](CSc1ccccc1)Nc1ccc(S(=O)(=O)NC(=O)c2ccc(N3CCC([C@@H](O)c4ccccc4-c4ccc(Cl)cc4)CC3)cc2)cc1S(=O)(=O)C(F)(F)F [AZD4320] + C[C@@H]1COCCN1C2=NC(=NC(=C2)C3(CC3)[S@](=N)(=O)C)C4=C5C=CNC5=NC=C4 [AZD6738] (first compound max 1 µM, 7x7, partner max 10 µM)",-0.0795,-0.0524,-0.0536,0.0174,-0.0539,-0.0453,-0.104,-0.0126,-0.0236,0.0135,0.0127,0.014,-0.0119,-0.0137,-0.0134,-0.0203,-0.0586,0.0594,-0.0456,-0.0256
"CN(CCO)CC[C@H](CSc1ccccc1)Nc1ccc(S(=O)(=O)NC(=O)c2ccc(N3CCC([C@@H](O)c4ccccc4-c4ccc(Cl)cc4)CC3)cc2)cc1S(=O)(=O)C(F)(F)F [AZD4320] + Cc1cc2ncnn2cc1Nc1ncc2c(n1)n(C1CCOCC1)c(=O)n2C [AZD7648] (first compound max 1 µM, 7x7, partner max 10 µM)",-0.0248,-0.0358,-0.0396,-0.0253,-0.0372,-0.0643,-0.0338,0.0269,0.015,0.0075,0.0352,-0.0018,-0.0557,-0.0109,-0.0462,0.0161,-0.0438,0.0257,-0.0695,-0.0312
"Cc1nc(Nc2ncc(C(=O)Nc3c(C)cccc3Cl)s2)cc(N2CCN(CCO)CC2)n1 [Dasatinib] + CC(=O)Nc1cccc(-n2c(=O)n(C3CC3)c(=O)c3c(Nc4ccc(I)cc4F)n(C)c(=O)c(C)c32)c1 [Trametinib] (first compound max 2 µM, 7x7, partner max 1 µM)",-0.0102,0.0311,-0.035,-0.0394,-0.086,-0.179,0.136,0.198,-0.0576,-0.103,-0.0813,-0.0403,-0.108,-0.0745,0.0155,0.0396,0.0273,-0.0238,-0.0339,0.153
"CN(C)CCCOc1ccc(-c2ccc3ncc4c(c3c2)n(C2CCOCC2)c(=O)n4C)cn1 [AZD0156] + O=C(c1cc(Cc2n[nH]c(=O)c3ccccc23)ccc1F)N1CCN(C(=O)C2CC2)CC1 [Olaparib] (first compound max 3 µM, partner max 3 µM)",-0.0131,0.0002,0.116,0.117,0.172,0.092,-0.0072,0.102,0.13,-0.0984,0.134,0.28,0.0188,0.0588,-0.0199,0.0337,-0.0347,0.156,-0.0568,-0.0089
"C=CCn1c(=O)c2cnc(Nc3ccc(N4CCN(C)CC4)cc3)nc2n1-c1cccc(C(C)(C)O)n1 [AZD1775] + C1CN(CCC1(C(=O)N[C@@H](CCO)C2=CC=C(C=C2)Cl)N)C3=NC=NC4=C3C=CN4 [Capivasertib] (first compound max 3 µM, partner max 3 µM)",-0.0728,-0.0318,0.0064,-0.0045,0.0244,0.0291,-0.0475,0.144,-0.0571,-0.0422,0.0514,0.0613,-0.0524,-0.0274,-0.0694,0.0543,-0.0372,0.0724,-0.0067,-0.0534
"C=CCn1c(=O)c2cnc(Nc3ccc(N4CCN(C)CC4)cc3)nc2n1-c1cccc(C(C)(C)O)n1 [AZD1775] + C[C@@H]1COCCN1C2=NC(=NC(=C2)C3(CC3)[S@](=N)(=O)C)C4=C5C=CNC5=NC=C4 [AZD6738] (first compound max 1 µM, partner max 10 µM)",0.0262,0.0215,-0.029,0.0273,-0.0198,0.0199,0.0329,-0.0022,-0.131,0.0431,-0.017,0.0428,0.0583,0.0368,-0.0391,0.0753,-0.0058,0.0675,-0.0824,0.0438
"Cn1cnc2c(F)c(Nc3ccc(Br)cc3Cl)c(C(=O)NOCCO)cc21 [Selumetinib] + CC(C)n1c(=O)n(C)c2cnc3cc(F)c(-c4ccc(OCCCN5CCCCC5)nc4)cc3c21 [AZD1390] (first compound max 10 µM, 7x7, partner max 0.3 µM)",-0.064,-0.0642,-0.0626,-0.0517,-0.0359,-0.03,-0.008,-0.0238,-0.0455,-0.0167,-0.0327,0.0273,-0.112,-0.0582,-0.0152,-0.0165,-0.0769,-0.0212,-0.0279,-0.0275
"CN(CCO)CC[C@H](CSc1ccccc1)Nc1ccc(S(=O)(=O)NC(=O)c2ccc(N3CCC([C@@H](O)c4ccccc4-c4ccc(Cl)cc4)CC3)cc2)cc1S(=O)(=O)C(F)(F)F [AZD4320] + CN(C)CCCOc1ccc(-c2ccc3ncc4c(c3c2)n(C2CCOCC2)c(=O)n4C)cn1 [AZD0156] (first compound max 1 µM, 7x7, partner max 1 µM)",-0.0565,-0.0255,-0.0392,-0.0408,0.0042,-0.0681,-0.0444,-0.002,0.0012,-0.0242,-0.0813,0.0226,-0.0009,0.0046,-0.055,0.0066,-0.0484,-0.0242,-0.0474,-0.0378
"CN(CCO)CC[C@H](CSc1ccccc1)Nc1ccc(S(=O)(=O)NC(=O)c2ccc(N3CCC([C@@H](O)c4ccccc4-c4ccc(Cl)cc4)CC3)cc2)cc1S(=O)(=O)C(F)(F)F [AZD4320] + C1CN(CCC1(C(=O)N[C@@H](CCO)C2=CC=C(C=C2)Cl)N)C3=NC=NC4=C3C=CN4 [Capivasertib] (first compound max 1 µM, 7x7, partner max 3 µM)",-0.0589,0.0699,-0.0579,-0.0256,-0.0124,-0.0135,-0.0583,0.0458,-0.0687,-0.0398,-0.0058,-0.0506,-0.0081,0.0055,-0.0087,0.0172,-0.0501,-0.0379,-0.103,-0.0533

# — the supplement of paper PMC11061612
